Measured values from US7700644B2, “Isoflavonoid dimers” (Novogen Research Pty Ltd, priority 2005, dated 2010).

Legend:
A2780 (Ovarian) = assay: In vitro cytotoxicity, MTT proliferation assay, A2780; assay type: cell-based, human; details: Homo sapiens
Method: (§1) The human pancreatic cancer cell line, HPAC (CRL-2119) was routinely cultured in 1:1 mixture DMEM (Sigma) plus Ham's F12 (Sigma) medium containing HEPES (15 mM), insulin (0.002 mg/ml), transferrin (0.005 mg/ml), hydrocortisone, (40 ng/ml), epidermal growth factor (10 ng/ml). The ovarian cancer cell line CP70 was obtained as a gift from Dr. Gil Mor (Yale University) and cultured in a 1:1 mixture DMEM plus Ham's F12 medium, and SKOV-3 was purchased from ATCC and cultured in McCoy's 5a medium. The breast cancer cell line MDA-MB-468 cultured in Leibovitz's L-15 medium.
(§2) All cultures were supplemented with 10% FCS(CSL, Australia), penicillin (100 U/ml), streptomycin ([…]), L-glutamine (2 mM) and sodium bicarbonate (1.2 g/L), and cultured at 37° C. in a humidified atmosphere of 5% CO2. All remaining cell lines were purchased from ATCC (Maryland, USA) except where noted.
(§3) IC50 values were determined for each cell line. Cells were seeded in 96-well plates at an appropriate cell density as determined from growth kinetics analysis. NFFs were cultured for 5 days and RK-13s for 24 hrs in the absence and presence of the test compounds. Cell proliferation was assessed after the addition of 20 μl of 3-4,5 dimethylthiazol-2,5-diphenyl tetrazolium bromide (MTT, 2.5 mg/ml in PBS, Sigma) for 3-4 hrs at 37° C. according to manufacturer's instructions. IC50 values were calculated from semi-log plots of % of control proliferation on the y-axis against log dose on the x-axis.

CCRF-CEM (Leukemic) = assay: In vitro cytotoxicity, MTT proliferation assay, CCRF-CEM; assay type: cell-based; details: Homo sapiens
Method: as §1, §2
as §3, with “NFFs were cultured for 5 days and RK-13s for 24 hrs in the absence and presence of the test compounds.” left out

HT-29 (Colorectal) cells = assay: Chemosensitisation, combination with antineoplastic agent, HT-29; assay type: cell-based, human; details: for synergy with Paclitaxel: Cpd. 2 1 μM and 2 μM
Method: The utility of the dimeric compounds of the invention to act as a chemosensitiser when used in combination with an array of standard chemotherapeutic agents was assessed. Dimeric Cpd. 2 was applied to various colorectal and pancreatic cancer cell lines to investigate its synergy with standard chemotherapeutic agents including cisplatin, gemcitabine, paclitaxel, doxorubicin, camptothecin and topotecan.
The experiment as outlined in SOP-BD011 (Versions A and B) was used to screen three antineoplastic agents against a given cell line in any ‘one’ experiment (see for example Kanzawa et al., (1997)). The inherent design of the experiment allowed for three sequences of Cpd. 2 and an antineoplastic agent. • 1) Direct Sequence—Cells are treated with both Cpd. 2 and a single antineoplastic agent (combined) for 5 days. • 2) Cpd. 2 First (Forward) Sequence—Cells are treated for 24 hours with Cpd. 2 before replacing with a 24 hour antineoplastic agent treatment; drugs are then washed out and processed on Day 5. • 3) Reverse Sequence—The reverse order to experiment No. 2 above. i.e. a cytotoxin first sequence Results and Conclusions
All data was evaluated using the formulae of theoretic additivity incorporated into a three dimensional model, as described by Kanzawa et al. (1997). This allows for simple data interpretation as values in excess of 10% are defined as ‘synergistic’ (depicted in grey) whilst those below −10% are defined as ‘antagonistic’ (depicted in black).

[1] = system: ear swelling in mice induced by the topical application of arachidonic acid (AA); assay: Murine ear inflammation induced by arachidonic acid; assay type: in vivo, Female BALB/c mice
Method: Compound 2 was examined for its ability to inhibit ear swelling in mice induced by the topical application of arachidonic acid (AA). The inflammatory response due AA, the immediate precursor of the eicosanoids, is due to formation of AA metabolites via both the cyclooxygenase (COX) and lipoxygenase (LOX) pathways (Young et al. 1984). AA induces an early (10-15 min) increase in both PGE2 and LTC4 synthesis which precedes the increase in ear thickness (Opas et al. 1985; Chang et al. 1986).
Female BALB/c mice (ARC, WA, Australia), weighing 15-21 g were injected with Compound 2 delivered in polyethylene glycol (PEG) 400:phosphate buffered saline (PBS) 1:1 intraperitoneally (i/p) at a dose of 25 mg/kg 30 min prior to the application of AA being to the ears. Mice were anaesthetised using isoflurane and baseline thickness of both ears was measured using a spring micrometer. Each mouse received a total of […] of AA in ethanol (50 mg/ml) applied to the inner and outer surfaces of each pinna (i.e. 0.5 mg AA or 2 μg PMA per ear). […]
The difference in ear swelling pre- and post-application of AA for each ear was calculated, and the average for the two ears of each mouse calculated. The difference in mean swelling of each test group compared to the group given vehicle alone was calculated using a two-tailed unpaired t test (Prism 4, GraphPad Software).

unstimulated splenocytes = assay: Murine splenocytes, 24 hour pre-incubation with compound then mitogenic stimulation; assay type: cell-based, Male Skh-1 (hairless) mice; details: 10 μM
Method: Male Skh-1 (hairless) mice, six weeks old were killed by cervical dislocation. Single cell suspensions were made from their spleens and erythrocytes were lysed in buffer (0.14M NH4Cl, 17 mM Tris, pH 7.2). The remaining splenocytes were cultured in RPMI-1640 (Gibco) supplemented with 10% (v:v) FBS, 200 mM L-glutamine, penicillin/streptomycin and […] 2-mercaptoethanol. Splenocytes were added to triplicate wells containing either concanavalin A (ConA, Sigma-Aldrich—0.4 μg/well), lipopolysaccharide (LPS, Sigma-Aldrich—1 μg/well) or no mitogen, as well as 10 μM of either Compound 1 or Compound 2 in DMSO, or DMSO alone. Samples were analysed after a 3 day incubation at 37° C. in 5% CO2 in air. To assess cell numbers, methylthiazoletetrazolium (MTT) was added to each well, incubated for a further 4 hrs and then colour developed with 0.04N HCl in isopropanol (Mosmann 1983). Plates were read at 570 nm and 630 nm. The compounds were examined several times using different mice. For each assay, the effect of test compound was compared with that of vehicle control, and the results compared using a student's t test (Prism). Statistically significant difference was determined to have occurred when p<0.05.
Another assay examined the effect pre-incubating unstimulated splenocytes with test compounds at 10 μM for 24 hours, removing the compounds and then assessing their ability to respond to mitogenic stimulation as described for the previous assay. Cell numbers were assessed after the 24 hr pre-incubation using MTT, and equal numbers of cells/well plated into 96 well plates as usual.

COc1ccc(C23COc4c(ccc(O)c4C)C2C2c4ccc(O)c(C)c4OCC2c2cc(OC)c(OC)cc23)cc1OC (stereo not drawn) [Cpd. 2, 4,9-Dihydroxy-14,15-dimethoxy-12a-(3′,4′-dimethoxyphenyl)-3,10-dimethyl-2,11-dioxa-(1H,12H)-6b,6c,12a,16b-tetrahydronaphtho[1,2-g]chrysene]
IC50 (A2780 (Ovarian)): 10.16 ± 0.07 µM | IC50 (CCRF-CEM (Leukemic)): 10.3 ± 1.33 µM | synergy with Doxorubicin (HT-29 (Colorectal) cells; Doxorubicin first (C)): no synergy | synergy with Doxorubicin (HT-29 (Colorectal) cells; combination (A) and forward (B) sequences): strong synergistic cytotoxicity | synergy with Paclitaxel (HT-29 (Colorectal) cells; combination (A)): strong synergy | synergy with Gemcitabine (HT-29 (Colorectal) cells; forward (A) and reverse (B) sequences, Cpd. 2 5 μM and 10 μM): synergistic cytotoxicity | synergy with Paclitaxel (HT-29 (Colorectal) cells; forward (B) and reverse (C) 24 hour sequences): Less significant regions of synergy | Change in ear thickness (mean ± SD, ×0.01 mm) ([1]; 25 mg/kg i/p 30 min prior to AA, 1 hr post-AA, vehicle 14.5 ± 4.7): 5.1 ± 1.7 ×0.01 mm | ear thickness compared with vehicle alone ([1]; 25 mg/kg i/p, AA-induced): significant reduction | Splenocyte viability following three days' culture in the absence of mitogen (unstimulated splenocytes): significantly reduced | reduction in cell numbers compared with vehicle alone (unstimulated splenocytes): 55% | proliferative response to ConA after pre-incubation (unstimulated splenocytes; compound removed): significantly less
